Assay results: patent US10357493B2, “Metalloenzyme inhibitor compounds” (Selenity Therapeutics (Bermuda), Ltd., priority 2017, dated 2019)

Legend:
HDAC1 = HDAC1 (Homo sapiens (Human), UniProt Q13547); assay: HDAC1 enzymatic assay; assay type: biochemical; settings: read-out: Human HDAC1 IC50
Protocol: (§1) All enzymatic reactions were conducted in duplicate at room temperature for 17 hours in a 50 μl mixture containing HDAC assay buffer (50 mM Tris-HCl, pH 7.4, 137 mM NaCl, 2.7 mM KCl, 0.05% Tween 20, 5 μg BSA), an HDAC substrate, an HDAC enzyme, and a test compound. Compound dilution was prepared ten-fold higher than the final concentration of the compounds with 10% DMSO in HDAC assay buffer and 5 μl of the dilution was added to a 50 μl reaction so that the final concentration of DMSO is 1% in all of reactions. After enzymatic reactions, 50 μl of HDAC Developer was added to each well and the plate was incubated at room temperature for an additional 20 minutes. Fluorescence intensity was measured at an excitation of 360 nm and an emission of 460 nm using a Tecan Infinite M1000 or Biotek Synergy microplate reader.
(§2) The fluorescent intensity data were analyzed using the computer software, Graphpad Prism. In the absence of the compound, the fluorescent intensity (Ft) in each data set was defined as 100% activity. In the absence of HDAC, the fluorescent intensity (Fb) in each data set was defined as 0% activity. The percent activity in the presence of each compound was calculated according to the following equation: % activity=(F−Fb)/(Ft−Fb), where F=the fluorescent intensity in the presence of the compound.
(§3) The values of % activity versus a series of compound concentrations were then plotted using non-linear regression analysis of Sigmoidal dose-response curve generated with the equation Y=B+(T−B)/1+10((Log EC50−X)×Hill Slope), where Y=percent activity, B=minimum percent activity, T=maximum percent activity, X=logarithm of compound and Hill Slope=slope factor or Hill coefficient. The IC50 value was determined by the concentration causing a half-maximal percent activity.
(§4) HDAC1 enzymatic assays contained 0.5 ng HDAC1 and 10 uM of HDAC substrate. HDAC2 enzymatic assays contained 0.5 ng HDAC2 and 10 uM of HDAC substrate. HDAC3 enzymatic assays contained 0.4 ng HDAC3/NCOR2 and 10 uM of HDAC substrate. HDAC4 enzymatic assays contained 0.02 ng HDAC4 and 2 uM of HDAC substrate. HDAC5 enzymatic assays contained 0.5 ng HDAC5 and 2 uM of HDAC substrate. HDAC6 enzymatic assays contained 2 ng HDAC6 and 10 uM of HDAC substrate. HDAC7 enzymatic assays contained 0.05 ng HDAC7 and 2 uM of HDAC substrate. HDAC8 enzymatic assays contained 5 ng HDAC8 and 2 uM of HDAC substrate. HDAC9 enzymatic assays contained 1 ng HDAC9 and 2 uM of HDAC substrate. HDAC10 enzymatic assays contained 75 ng HDAC10 and 10 uM of HDAC substrate. HDAC11 enzymatic assays contained 5 ng HDAC11 and 2 uM of HDAC substrate.

HDAC6 = HDAC6 (Homo sapiens (Human), UniProt Q9UBN7); assay: HDAC6 enzymatic assay; assay type: biochemical; settings: read-out: Human HDAC6 IC50
Protocol: as §1, §2, §3, §4

HDAC1, sequence (Q13547 whole entry): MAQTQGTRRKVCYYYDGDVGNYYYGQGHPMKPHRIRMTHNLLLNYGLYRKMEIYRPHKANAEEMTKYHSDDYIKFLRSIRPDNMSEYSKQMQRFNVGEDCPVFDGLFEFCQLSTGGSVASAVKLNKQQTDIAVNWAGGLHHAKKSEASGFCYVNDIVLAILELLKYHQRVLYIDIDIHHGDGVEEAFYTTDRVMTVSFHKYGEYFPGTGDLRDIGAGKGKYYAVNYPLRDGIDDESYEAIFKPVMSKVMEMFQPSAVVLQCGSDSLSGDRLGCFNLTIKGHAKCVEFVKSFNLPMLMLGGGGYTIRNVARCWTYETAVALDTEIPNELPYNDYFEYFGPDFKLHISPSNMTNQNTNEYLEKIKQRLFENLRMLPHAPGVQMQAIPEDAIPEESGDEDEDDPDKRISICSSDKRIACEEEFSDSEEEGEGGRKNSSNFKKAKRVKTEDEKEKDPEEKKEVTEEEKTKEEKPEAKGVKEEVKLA
HDAC6, sequence (Q9UBN7 whole entry): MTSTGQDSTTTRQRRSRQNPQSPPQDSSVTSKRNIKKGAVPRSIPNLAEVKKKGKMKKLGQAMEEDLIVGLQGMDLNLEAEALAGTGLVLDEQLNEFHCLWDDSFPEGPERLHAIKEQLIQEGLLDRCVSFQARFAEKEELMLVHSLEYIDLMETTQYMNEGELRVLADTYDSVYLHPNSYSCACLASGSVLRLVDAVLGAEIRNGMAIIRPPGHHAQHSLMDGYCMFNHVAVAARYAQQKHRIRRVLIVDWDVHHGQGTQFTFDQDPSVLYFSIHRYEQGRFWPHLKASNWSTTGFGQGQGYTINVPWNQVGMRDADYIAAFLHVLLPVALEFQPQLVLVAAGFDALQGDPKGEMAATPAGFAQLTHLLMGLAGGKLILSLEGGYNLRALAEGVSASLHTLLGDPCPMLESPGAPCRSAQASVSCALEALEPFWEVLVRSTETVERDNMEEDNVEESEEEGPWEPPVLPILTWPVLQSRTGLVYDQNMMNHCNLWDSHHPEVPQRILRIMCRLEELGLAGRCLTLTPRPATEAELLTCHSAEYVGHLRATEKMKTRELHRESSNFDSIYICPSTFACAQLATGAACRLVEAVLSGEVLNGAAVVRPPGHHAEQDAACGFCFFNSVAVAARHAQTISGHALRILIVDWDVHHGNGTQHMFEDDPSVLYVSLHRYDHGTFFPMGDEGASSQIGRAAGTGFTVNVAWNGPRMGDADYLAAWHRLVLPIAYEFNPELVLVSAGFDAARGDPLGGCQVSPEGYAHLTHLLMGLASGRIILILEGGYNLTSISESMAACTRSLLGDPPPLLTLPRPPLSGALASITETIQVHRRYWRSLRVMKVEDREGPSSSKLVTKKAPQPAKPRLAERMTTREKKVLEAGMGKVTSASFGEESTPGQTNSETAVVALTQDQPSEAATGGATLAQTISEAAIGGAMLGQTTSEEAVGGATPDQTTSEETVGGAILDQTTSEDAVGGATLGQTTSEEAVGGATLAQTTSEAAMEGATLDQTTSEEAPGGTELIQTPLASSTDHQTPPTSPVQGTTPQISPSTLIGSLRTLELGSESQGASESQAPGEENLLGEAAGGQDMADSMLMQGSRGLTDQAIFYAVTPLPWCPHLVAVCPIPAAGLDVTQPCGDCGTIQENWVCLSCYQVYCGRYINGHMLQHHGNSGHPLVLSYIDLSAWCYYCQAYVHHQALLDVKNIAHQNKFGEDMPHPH

| Structure (SMILES) | IC50 (HDAC1) | IC50 (HDAC6) |
| --- | --- | --- |
| CC(=O)NCC(Nc1ncc(-c2nnc(C(F)F)o2)cn1)c1ccc(F)cc1 (racemic) [Example 78, N-(2-((5-(5-(difluoromethyl)-1,3,4-oxadiazol-2-yl)pyrimidin-2-yl)amino)-2-(4-fluorophenyl)ethyl)acetamide] | > 30000 nM | 47 nM |
| CS(=O)(=O)NCC(Nc1ncc(-c2nnc(C(F)F)o2)cn1)c1ccc(F)cc1 (single isomer, unassigned) [38(−), N-(2-((5-(5-(difluoromethyl)-1,3,4-oxadiazol-2-yl)pyrimidin-2-yl)amino)-2-(4-fluorophenyl)ethyl) methanesulfonamide] | > 30000 nM | 320 nM |
| CC(=O)NCC(Nc1ncc(-c2nnc(C(F)F)o2)cn1)c1ccc(F)cc1 (single isomer, unassigned) [78(+), N-(2-((5-(5-(difluoromethyl)-1,3,4-oxadiazol-2-yl)pyrimidin-2-yl)amino)-2-(4-fluorophenyl)ethyl)acetamide] | > 30000 nM | 48 nM |
| CC(=O)NCC(Nc1ncc(-c2nnc(C(F)F)o2)cn1)c1ccc(F)cc1 (single isomer, unassigned) [78(−), N-(2-((5-(5-(difluoromethyl)-1,3,4-oxadiazol-2-yl)pyrimidin-2-yl)amino)-2-(4-fluorophenyl)ethyl)acetamide] | > 30000 nM | 420 nM |
| Fc1ccc(C(CC(F)(F)F)Nc2ncc(-c3nnc(C(F)F)o3)cn2)c(F)c1 (single isomer, unassigned) [101(+)] | > 30000 nM | 22 nM |
| Fc1ccc(C(CC(F)(F)F)Nc2ncc(-c3nnc(C(F)F)o3)cn2)c(F)c1 (single isomer, unassigned) [101(−)] | > 30000 nM | 710 nM |
| CS(=O)(=O)NCC(Nc1ncc(-c2nnc(C(F)F)o2)cn1)c1ccc(F)cc1F (single isomer, unassigned) [103(−), N-(2-((5-(5-(difluoromethyl)-1,3,4-oxadiazol-2-yl)pyrimidin-2-yl)amino)-2-(2,4-difluorophenyl)ethyl)methanesulfonamide] | > 30000 nM | 650 nM |
| CS(=O)(=O)NCC(Nc1ncc(-c2nnc(C(F)F)o2)cn1)c1ccc(OC(F)F)cc1 (single isomer, unassigned) [115(−), N-(2-(4-(difluoromethoxy)phenyl)-2-((5-(5-(difluoromethyl)-1,3,4-oxadiazol-2-yl)pyrimidin-2-yl)amino)ethyl)methanesulfonamide] | > 30000 nM | 370 nM |
| CS(=O)(=O)NCC(Nc1ncc(-c2nnc(C(F)F)o2)cn1)c1ccc(OC(F)F)cc1F (single isomer, unassigned) [116(−), N-(2-(4-(difluoromethoxy)-2-fluorophenyl)-2-((5-(5-(difluoromethyl)-1,3,4-oxadiazol-2-yl)pyrimidin-2-yl)amino)ethyl)methanesulfonamide] | > 30000 nM | 260 nM |
| CS(=O)(=O)NCC(Nc1ncc(-c2nnc(C(F)F)o2)cn1)c1ccc(OC(F)(F)F)cc1 (single isomer, unassigned) [122(−), N-(2-((5-(5-(difluoromethyl)-1,3,4-oxadiazol-2-yl)pyrimidin-2-yl)amino)-2-(4-(trifluoromethoxy)phenyl)ethyl)methanesulfonamide] | > 30000 nM | 840 nM |
| CS(=O)(=O)NCC(Nc1ncc(-c2nnc(C(F)F)o2)cn1)C1CC1 (single isomer, unassigned) [123(+), N-(2-cyclopropyl-2-((5-(5-(difluoromethyl)-1,3,4-oxadiazol-2-yl)pyrimidin-2-yl)amino)ethyl)methanesulfonamide] | > 30000 nM | 1100 nM |
| Fc1ccc(C(COC2CC2)Nc2ncc(-c3nnc(C(F)F)o3)cn2)c(F)c1 (single isomer, unassigned) [Example 134B, N-(2-cyclopropoxy-1-(2,4-difluorophenyl)ethyl)-5-(5-(difluoromethyl)-1,3,4-oxadiazol-2-yl)pyrimidin-2-amine] |  | 61 nM |
